Values of other authors as cited in US4559324A, “Polypeptide-diesters, their production and use” (Takeda Chemical Industries, Ltd., priority 1982, dated 1985).

System: Substance P
Conditions: S. Rosell and K. Folkers, TIPS, 211 (1982)

Substance | antagonist activity against Substance P
(D-Pro^2, D-Phe^7, D-Trp^9)-Substance P | sufficiently active
(D-Pro^2, D-Trp^7, D-Trp^9)-Substance P | sufficiently active
